Measured values: patent US8394404B2, “Adhesive material and adhesive preparation” (Nitto Denko Corporation, priority 2004, dated 2013)
Entries after “also recorded” stand apart in the source; their conditions may differ.

Assay: in vitro permeability test using the skin removed from a mouse
Assay type: in vitro ADME
Details: adhesive preparation of the adhesive material of Example 3 with adhesive layer containing 5% ISDN
Protocol: Thus, the adhesive preparation of the present invention is useful as a percutaneously absorbable adhesive preparation for continuous administration of a drug into the body.
An adhesive preparation comprising the adhesive material of the above-mentioned Example 3, which has an adhesive layer containing 5% isosorbide dinitrate (ISDN) was prepared and subjected to an in vitro permeability test using the skin removed from a mouse.

O=[N+]([O-])O[C@H]1CO[C@H]2[C@@H]1OC[C@H]2O[N+](=O)[O-] [ISDN, isosorbide dinitrate]
percutaneous absorption of ISDN: percutaneous absorbability of ISDN was confirmed; also recorded: percutaneous absorption of ISDN was confirmed
